Results: ChEMBL document CHEMBL1165917, “Synthesis and NMDA receptor affinity of fluorinated dioxadrol analogues” (Bioorg Med Chem, 2010)

What was measured:
[1] = Displacement of [3H]-(+)-MK801 from PCP binding site of NMDA receptor from pig brain cortex after 150 mins by scintillation counting; design: species or system Sus scrofa
[2] = biological target: Sigma non-opioid intracellular receptor 1 (Cavia porcellus, UniProt Q60492); experiment: Displacement of [3H](+)-pentazocine from sigma1 opioid receptor from guinea pig brain cortex after 150 mins by scintillation counting
Chain of Sigma non-opioid intracellular receptor 1 (Q60492 whole entry): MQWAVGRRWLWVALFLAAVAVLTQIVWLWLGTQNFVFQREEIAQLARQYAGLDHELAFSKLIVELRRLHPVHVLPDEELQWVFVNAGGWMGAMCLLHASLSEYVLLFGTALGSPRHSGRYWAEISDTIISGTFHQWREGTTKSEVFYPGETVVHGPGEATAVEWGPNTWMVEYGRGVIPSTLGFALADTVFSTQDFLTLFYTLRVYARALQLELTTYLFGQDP

[3] = Displacement of [3H]ditolylguanidine from sigma2 opioid receptor from rat brain cortex after 150 mins by scintillation counting
Sus scrofa = organism: Sus scrofa; settings: at 1 µM
Description: Displacement of [3H]-(+)-MK801 from PCP binding site of NMDA receptor from pig brain cortex at 1 uM after 150 mins by scintillation counting

[4] = biological target: Sigma non-opioid intracellular receptor 1 (Cavia porcellus) (UniProt Q60492); settings: at 1 µM
Chain of Sigma non-opioid intracellular receptor 1 (Cavia porcellus) (Q60492 whole entry): as above
Description: Displacement of [3H](+)-pentazocine from sigma1 opioid receptor from guinea pig brain cortex at 1 uM after 150 mins by scintillation counting

Rattus norvegicus = organism: Rattus norvegicus; settings: at 1 µM

Structure (SMILES) | Ki [1] [nM] | Ki [2] [nM] | Ki [3] [nM] | inhibition (Sus scrofa) [%] | inhibition [4] [%] | inhibition (Rattus norvegicus) [%]
FC1(F)CCNC(C2COC(c3ccccc3)(c3ccccc3)O2)C1 (racemic) | 81 | 810 | 137 | 58 | 0 | 17
OC1CCNC(C2COC(c3ccccc3)(c3ccccc3)O2)C1 (racemic) | 44 | 971 | – | – | – | 13
CC12CC3CC(C)(C1)CC(N)(C3)C2 [MEMANTINE] | 1200 | – | – | – | – | –
FC1CCNC(C2COC(c3ccccc3)(c3ccccc3)O2)C1 (racemic; form 2) [listing 1 of 2 here] | 27 | – | – | – | – | –
FC1CCNC(C2COC(c3ccccc3)(c3ccccc3)O2)C1 (racemic; form 2) [listing 2 of 2 here] | – | – | – | – | 5 | 19
FC1CCNC(C2COC(c3ccccc3)(c3ccccc3)O2)C1 (racemic; form 1) | – | – | – | 0 | 5 | 19
O=C1CCNC(C2COC(c3ccccc3)(c3ccccc3)O2)C1 (racemic) | 470 | – | – | – | 0 | –
